10 compounds from ChEMBL document CHEMBL1201862, “PubChem BioAssay data set” (2004) can be followed below.

Where “and” joins values, the source holds several entries; their conditions need not be identical. Identical values can stand only once.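 Growth conditions: 96-well plates. Treatment: test compound, 48 hours, 5 concentrations. Analysis: linear interpolation between bracketing concentrations; unreached endpoints set to highest concentration. Here, GI50 denotes the concentration required for 50% inhibition of growth.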 Calls of active or inactive are those of the source. No stated cut-off is given here; in the data, active = GI50 up to about 1.1 µM and inactive = higher.

Test systems include SK-MEL-28; SF-295; SN12C; ACHN; SF-268; HOP-92; T47D; MCF7; COLO 205; 786-0; HL-60; HCC 2998; MDA-MB-435; UO-31; SK-OV-3; SK-MEL-2; NCI-H23; M14; SR; SK-MEL-5.
Common to all, as to assay: growth of human tumour cells (NCI), 48 h

Turning to `O=C(CCN1CCCCC1)Nc1ccc2c(c1)C(=O)c1ccc(NC(=O)CCN3CCCCC3)cc1C2=O`, the GI50 in the assay with SK-MEL-28 is 17.5 µM (inactive); in the assay on SF-295 it was 5.22 µM (inactive); in the assay with SN12C, 5.81 µM (inactive); in the assay on ACHN it was 11.6 µM (inactive); in the assay on SF-268 it was 7.96 µM (inactive); in the assay with HOP-92 it was 15.4 µM (inactive). The GI50 in the assay with T47D was 16.5 µM (inactive); in the assay on MCF7, 2.31 µM (inactive); in the assay on COLO 205, 10.9 µM (inactive); in the assay on 786-0, 1.61 µM (inactive); in the assay on HL-60, 2.79 µM (inactive); in the assay on HCC 2998 it was 4.45 µM (inactive). Further, the GI50 is 1.82 µM (inactive) with MDA-MB-435; 12.4 µM (inactive) with UO-31; 13.2 µM (inactive) in the assay on SK-OV-3; 5.16 µM (inactive) in the assay with SK-MEL-2; 6.05 µM (inactive) in the assay on NCI-H23; 5.73 µM (inactive) with M14. Besides, the values for the GI50 in the assay with SR and with SK-MEL-5 were 2.47 µM (inactive) and 5.71 µM (inactive), respectively.
Take `CCC(C)C1=C(O)[N+]2([O-])Oc3ccc(-c4c(O)c(O)c(-c5ccc(OC(C)=O)cc5)c(OC(C)=O)c4OC(C)=O)cc3OC2(C(C)CC)C(=O)N1O` (centres undefined): the GI50 with SK-MEL-28 was 46.1 µM (inactive); in the assay with SF-295, > 50 µM (inactive); with SN12C, 42.9 µM (inactive); in the assay on ACHN, > 50 µM (inactive); in the assay with SF-268, 41.2 µM (inactive); with HOP-92, 8.17 µM (inactive) and 10 µM (inactive). In addition, the GI50 in the assay with T47D was 42.7 µM (inactive); in the assay on MCF7, > 50 µM (inactive); in the assay on COLO 205, > 50 µM (inactive); in the assay on 786-0 it was > 50 µM (inactive); with HL-60, 24 µM (inactive) and 27.4 µM (inactive); in the assay with HCC 2998, 11.9 µM (inactive). The GI50 is 26.1 µM (inactive) and 22.9 µM (inactive) with MDA-MB-435; > 50 µM (inactive) in the assay with UO-31; > 50 µM (inactive) in the assay on SK-OV-3; > 50 µM (inactive) in the assay with SK-MEL-2; > 50 µM (inactive) with NCI-H23; > 50 µM (inactive) with M14. In addition, the GI50 was 22.3 µM (inactive) and 13.9 µM (inactive) in the assay on SR; > 50 µM (inactive) and 29.2 µM (inactive) in the assay on SK-MEL-5.
Regarding `NC(=O)c1nnsc1NC=O`, the GI50 is > 100 µM (inactive) in the assay on SK-MEL-28; > 100 µM (inactive) with SF-295; > 100 µM (inactive) in the assay on SN12C; > 100 µM (inactive) in the assay with ACHN; > 100 µM (inactive) with SF-268; 75 µM (inactive) in the assay on HOP-92. The GI50 in the assay with T47D, in the assay on MCF7, in the assay with COLO 205, in the assay on 786-0, in the assay on HL-60 and in the assay on HCC 2998 was > 100 µM (inactive) throughout. For the same compound, the GI50 in the assay on MDA-MB-435, in the assay with UO-31, in the assay with SK-OV-3, in the assay on SK-MEL-2, in the assay on NCI-H23 and in the assay with M14 was > 100 µM (inactive) each time. The GI50 with SR and with SK-MEL-5 was > 100 µM (inactive) each time.
Consider `COc1ccc(CCNC(=O)Cc2cc(OC)c(OC)cc2CO)cc1OC`, for which the GI50 with SK-MEL-28, with SF-295, in the assay on SN12C, in the assay on ACHN, in the assay with SF-268 and with HOP-92 was > 100 µM (inactive) throughout. Besides, the GI50 with T47D, in the assay with MCF7, in the assay on COLO 205, in the assay with 786-0, with HL-60 and with HCC 2998 was > 100 µM (inactive) throughout. For the same compound, the GI50 with MDA-MB-435, in the assay on UO-31, with SK-OV-3, in the assay with SK-MEL-2, with NCI-H23 and with M14 was > 100 µM (inactive) each time. In addition, the GI50 with SR and in the assay on SK-MEL-5 was > 100 µM (inactive) each time.
For `CCOC(=O)C(C(=S)Nc1ccccc1)c1nn2c(=O)cc(C)nc2s1` (centres undefined), the GI50 in the assay with SK-MEL-28 is 21.1 µM (inactive); in the assay with SF-295, 32.4 µM (inactive); with SN12C it was 36.7 µM (inactive); in the assay on ACHN, 20.5 µM (inactive); with SF-268 it was 28.8 µM (inactive); in the assay with HOP-92, 16.4 µM (inactive). For the same compound, the GI50 in the assay with T47D was 25.5 µM (inactive); with MCF7, 19.4 µM (inactive); in the assay on COLO 205 it was 20.1 µM (inactive); in the assay on 786-0 it was 39.8 µM (inactive); with HL-60, 20.5 µM (inactive); with HCC 2998, 25.1 µM (inactive). For the same compound, the GI50 was 20.9 µM (inactive) in the assay with MDA-MB-435; 22.2 µM (inactive) in the assay on UO-31; 23.3 µM (inactive) with SK-OV-3; 36.2 µM (inactive) with SK-MEL-2; 35.6 µM (inactive) in the assay on NCI-H23; 22.9 µM (inactive) in the assay with M14. The GI50 is 25.1 µM (inactive) in the assay on SR and 23.1 µM (inactive) in the assay on SK-MEL-5.
In the case of `CC(C)=CC(=O)C[C@H]1C(=O)O[C@@H]2C[C@H]3C(C)=CC(=O)[C@@H](O)[C@]3(C)[C@H]3[C@@]4(O)OC[C@]32[C@@H]1[C@@H](C)[C@H]4O`, the GI50 is < 0.0114 µM (active) in the assay on SK-MEL-28; 0.023 µM (active) in the assay on SF-295; 0.043 µM (active) in the assay on SN12C; 0.0278 µM (active) in the assay on ACHN; 0.0275 µM (active) with SF-268; 0.0216 µM (active) in the assay with HOP-92. For the same compound, the GI50 is < 0.0111 µM (active) in the assay on T47D; < 0.01 µM (active) in the assay with MCF7; 0.125 µM (active) with COLO 205; 0.0266 µM (active) in the assay on 786-0; < 0.01 µM (active) in the assay on HL-60; 0.0313 µM (active) in the assay on HCC 2998. The GI50 in the assay on MDA-MB-435 was 0.0222 µM (active); in the assay with UO-31 it was 0.0605 µM (active); with SK-OV-3, 0.187 µM (active); with SK-MEL-2 it was 0.0311 µM (active); in the assay on NCI-H23, < 0.01 µM (active); in the assay with M14, 0.0196 µM (active). Besides, the GI50 in the assay with SR and in the assay on SK-MEL-5 was < 0.01 µM (active) throughout.
Regarding `O=C1CC(NC2CC(=O)c3c(Br)sc(Br)c32)c2c(Br)sc(Br)c21` (centres undefined), the GI50 with SK-MEL-28 was 7.85 µM (inactive); in the assay on SF-295 it was 13.6 µM (inactive); in the assay with SN12C it was 1.56 µM (inactive); in the assay with ACHN, 2.39 µM (inactive); in the assay on SF-268 it was 11.7 µM (inactive); in the assay on HOP-92, 6 µM (inactive). In addition, the GI50 with T47D was 2.46 µM (inactive); in the assay with MCF7 it was 2.81 µM (inactive); with COLO 205 it was 3.04 µM (inactive); with 786-0, 1.51 µM (inactive); with HL-60 it was 2.46 µM (inactive); in the assay on HCC 2998, 17 µM (inactive). The GI50 is 3.72 µM (inactive) in the assay on MDA-MB-435; 2.24 µM (inactive) in the assay with UO-31; 17.8 µM (inactive) with SK-OV-3; 3.51 µM (inactive) in the assay with SK-MEL-2; 9.48 µM (inactive) with NCI-H23; 5.58 µM (inactive) in the assay with M14. The GI50 was 2.28 µM (inactive) in the assay on SR and 5.96 µM (inactive) in the assay on SK-MEL-5.
As for `COc1cc(C2SCC(=O)N2c2ccc(Cl)cc2)cc(I)c1O` (centres undefined), the GI50 with SK-MEL-28 is 22 µM (inactive); in the assay on SF-295, 4.72 µM (inactive); with SN12C, > 100 µM (inactive); in the assay with SF-268, > 86.7 µM (inactive); in the assay with HOP-92, 57 µM (inactive); in the assay with T47D, 5.45 µM (inactive). The GI50 is 4.75 µM (inactive) in the assay on MCF7; 2.64 µM (inactive) with COLO 205; > 100 µM (inactive) in the assay on 786-0; 15.7 µM (inactive) in the assay with HL-60; 65.2 µM (inactive) in the assay with HCC 2998; 1.56 µM (inactive) in the assay on MDA-MB-435. The GI50 in the assay with UO-31 is > 100 µM (inactive); in the assay with SK-OV-3, > 100 µM (inactive); in the assay with SK-MEL-2, 23.9 µM (inactive); in the assay with NCI-H23, 25.5 µM (inactive); in the assay on M14 it was 4.86 µM (inactive); in the assay on SR it was 3.53 µM (inactive). In the assay on SK-MEL-5, the GI50 was 6.52 µM (inactive).
With `O=C(NN1C(=O)C(Cl)C1c1ccc(Cl)cc1)c1c(Cl)c(Cl)c(Cl)c(Cl)c1-c1nc2ccccc2[nH]1` (centres undefined), the GI50 in the assay with SK-MEL-28 is 16.9 µM (inactive); in the assay with SF-295, 23.9 µM (inactive); with SN12C, 23 µM (inactive); in the assay with ACHN, 18.9 µM (inactive); in the assay with SF-268, 25.8 µM (inactive); in the assay on HOP-92, 13.5 µM (inactive). For the same compound, the GI50 in the assay with T47D is < 0.01 µM (active); in the assay on MCF7, 12.7 µM (inactive); with COLO 205, 18.3 µM (inactive); with 786-0 it was 16.5 µM (inactive); with HL-60 it was 25.4 µM (inactive); with HCC 2998 it was 15.1 µM (inactive). For the same compound, the GI50 in the assay with MDA-MB-435 is 20.1 µM (inactive); with UO-31, 22.6 µM (inactive); in the assay on SK-OV-3, 42.7 µM (inactive); in the assay with SK-MEL-2 it was 21.8 µM (inactive); in the assay on NCI-H23 it was 21.5 µM (inactive); in the assay with M14 it was 20.8 µM (inactive). In addition, the results for the GI50 with SR and in the assay with SK-MEL-5 were 16.6 µM (inactive) and 26.4 µM (inactive), respectively.
Consider `CC1(C)CC[C@]2(C(=O)O)CC[C@]3(C)C(=CC[C@@H]4[C@@]5(C)C[C@H](O)[C@H](O)[C@@](C)(C(=O)O)[C@@H]5CC[C@]43C)[C@@H]2C1`, for which the GI50 with SK-MEL-28, with SF-295, with SN12C, with ACHN, with SF-268 and in the assay with HOP-92 was > 100 µM (inactive) in each case. The GI50 in the assay with T47D is > 100 µM (inactive); in the assay with MCF7 it was > 100 µM (inactive); in the assay on COLO 205, > 100 µM (inactive); with 786-0 it was > 100 µM (inactive); in the assay on HL-60, > 31.6 µM (inactive); in the assay on HCC 2998, > 100 µM (inactive). Further, the GI50 in the assay with MDA-MB-435, in the assay with UO-31, in the assay on SK-OV-3, in the assay on SK-MEL-2, with NCI-H23 and in the assay on M14 was > 100 µM (inactive) each time. Also, the GI50 in the assay with SR and in the assay with SK-MEL-5 was > 100 µM (inactive) throughout.
